ChEMBL document CHEMBL3727373, “Phosphoglycerate kinase inhibitors” (2012)

molecular target: T1, Phosphoglycerate kinase 1 (Homo sapiens, UniProt P00558); assay: Inhibition of PGK1 (unknown origin) pre-incubated with enzyme before 3-phosphoglycerate substrate addition and incubated for 30 mins in presence of NADH and ATP by glyceraldehyde P-dehydrogenase coupling based NADH fluorescence assay
T1 sequence (P00558 whole entry): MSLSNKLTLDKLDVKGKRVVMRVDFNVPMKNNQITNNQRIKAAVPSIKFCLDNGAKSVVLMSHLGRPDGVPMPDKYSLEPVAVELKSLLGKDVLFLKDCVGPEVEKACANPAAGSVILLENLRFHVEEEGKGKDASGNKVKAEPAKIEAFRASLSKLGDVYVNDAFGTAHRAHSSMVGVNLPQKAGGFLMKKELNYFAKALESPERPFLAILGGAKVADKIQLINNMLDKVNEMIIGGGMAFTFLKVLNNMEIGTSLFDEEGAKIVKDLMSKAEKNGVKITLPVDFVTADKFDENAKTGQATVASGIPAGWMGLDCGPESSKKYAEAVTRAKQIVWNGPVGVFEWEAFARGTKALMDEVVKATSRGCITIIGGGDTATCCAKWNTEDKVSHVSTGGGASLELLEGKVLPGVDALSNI

IC50 [nM] | SMILES
9 | CCNc1nc2cc(Cl)c(OC)cc2nc1NCC
1810 | CCNc1nc2cc(OC)c(OC)cc2nc1NCCCN1CCCC1=O
1280 | CCNc1nc2cc(OC)c(OC)cc2nc1NCc1ccccn1
4360 | CCNc1nc2cc(OC)c(OC)cc2nc1NCCCN1CCCC1
173 | CCNc1nc2cc(OC)c(Cl)cc2nc1NCCN1CCN(C)CC1
190 | CCNc1nc2cc(OC)c(Cl)cc2nc1-c1cccs1
2100 | CCNc1nc2cc(OC)c(Cl)cc2nc1-c1cccc(Cl)c1
240 | CCNc1nc2cc(OC)c(Cl)cc2nc1-c1cccc(C(N)=O)c1
346 | CN1CCN(CCNc2nc3cc(Cl)c(C#N)cc3nc2-c2ccccn2)CC1
385 | CCNc1nc2cc(Cl)c(C#CCCCCO)cc2nc1NCC
6660 | CCNc1nc2cc(OC)c(OC)cc2nc1-c1ccncc1
1500 | CCNc1nc2cc(OC)c(Cl)cc2nc1-c1cncc2ccccc12
24000 | CNc1nc2cc(OC)c(OC)cc2nc1Cl
1100 | CCNc1nc2cc(OC)c(Cl)cc2nc1-c1ccc(C(C)=O)s1
633 | CCNc1nc2cc(Cl)c(C#CC(=O)OC)cc2nc1NCC
1180 | CCNc1nc2cc(OC)c(Cl)cc2nc1Cl
129 | CCNc1nc2cc(OC)c(Cl)cc2nc1NCc1cccnc1
8 | CCNc1nc2cc(C#CCCO)c(Cl)cc2nc1NCCN1CCN(C)CC1
710 | CCNc1nc2cc(OC)c(OC)cc2nc1NCc1cccnc1
252 | CCNc1nc2cc(OC)c(Cl)cc2nc1NCCCN1CCCC1
840 | CCNc1nc2cc(OC)c(OC)cc2nc1NCCc1ccccn1
570 | CCNc1nc2cc(Cl)c(C#CCCCC#N)cc2nc1NCC
1700 | CCNc1nc2cc(OC)c(Cl)cc2nc1-c1ccc(N2CCN(C(=O)OC(C)(C)C)CC2)nc1

IC50 [nM] | SMILES
6320 | CCNc1nc2cc(OC)c(OC)cc2nc1Cl
1400 | CCNc1nc2cc(OC)c(Cl)cc2nc1-c1cccc2ncccc12
19 | CCNc1nc2cc(Cl)c(C#CC3CC3)cc2nc1NCC
1030 | CCNc1nc2cc(Cl)c(C#Cc3ccoc3)cc2nc1NCC
270 | CCC#Cc1cc2nc(NCC)c(NCC)nc2cc1Cl
884 | CCCCC#Cc1cc2nc(NCC)c(NCC)nc2cc1Cl
741 | CCNc1nc2cc(OC)c(OC)cc2nc1NCCc1ccncc1
41 | CCNc1nc2cc(C#CCCO)c(Cl)cc2nc1Cl
36 | CN1CCN(CCNc2nc3cc(Cl)c(C#CCCO)cc3nc2NCCN2CCN(C)CC2)CC1
16400 | COc1cc2nc(Br)c(NCCN3CCN(C)CC3)nc2cc1OC
2530 | CCNc1nc2cc(OC)c(OC)cc2nc1NC
5 | CCNc1nc2cc(Cl)c(C#CCCO)cc2nc1NCC
220 | CCNc1nc2cc(OC)c(Cl)cc2nc1-c1ccc2c(ccn2C)c1
7590 | COc1cc2nc(NCc3cccnc3)c(-c3ccncc3)nc2cc1OC
66 | CCNc1nc2cc(OC)c(Cl)cc2nc1-c1cnn(C)c1
366 | CCNc1nc2cc(O)c(Cl)cc2nc1NCC
1600 | CCNc1nc2cc(OC)c(Cl)cc2nc1-c1ccc2occc(=O)c2c1
195 | CCNc1nc2cc(OC)c(Cl)cc2nc1NCCCN1CCN(C)CC1
16 | CCNc1nc2cc(C#CCCO)c(Cl)cc2nc1NCCCN1CCN(C)CC1
596 | CCNc1nc2cc(Cl)c(-c3noc(CCO)n3)cc2nc1NCC
4640 | CCNc1nc2cc(OC)c(OC)cc2nc1Br
2000 | CCNc1nc2cc(OC)c(Cl)cc2nc1-c1ccccc1-c1ccccc1
66 | CCNc1nc2cc(Cl)c(C#CCOC)cc2nc1NCC

IC50 [nM] | SMILES
257 | CCNc1nc2cc(Cl)c(C#CCOC(=O)CC)cc2nc1NCC
1400 | CCNc1nc2cc(OC)c(Cl)cc2nc1-c1cc2ccccc2o1
5700 | CCNc1nc2cc(Cl)c(C#Cc3cccc(O)c3)cc2nc1NCC
1900 | CCNc1nc2cc(OC)c(Cl)cc2nc1-c1ccc(Cl)cc1
1 | CCNc1nc2cc(Cl)c(C#CCO)cc2nc1NCC
5830 | CCNc1nc2cc(Cl)c(CC(=O)CCC(=O)O)cc2nc1NCC
1170 | CCNc1nc2cc(Cl)c(OC(F)(F)F)cc2nc1NCC
42 | CCNc1nc2cc(Cl)c(C#CCCCO)cc2nc1NCC
210 | CCNc1nc2cc(OC)c(Cl)cc2nc1-c1cccc(C(=O)NCc2ccco2)c1
15 | CCNc1nc2cc(Cl)c(C#N)cc2nc1NCc1cccnc1
78 | CCNc1nc2cc(OC)c(Cl)cc2nc1-c1cc2ccccc2s1
4140 | CCNc1nc2cc(Cl)c(NC(C)=O)cc2nc1NCC
9000 | CCNc1nc2cc(Cl)c(CC(=O)CCC(=O)OC)cc2nc1NCC
515 | CCNc1nc2cc(OC)c(Cl)cc2nc1NC(C)CCCN(CC)CC (stereo not given)
2300 | CCNc1nc2cc(OC)c(Cl)cc2nc1-c1ccc2c(c1)OCO2
320 | C#CCOc1cc2nc(NCC)c(NCC)nc2cc1Cl
4810 | CCNc1nc2cc(Cl)c(C#CC(C)(O)CC)cc2nc1NCC (stereo not given)
38 | CCNc1nc2cc(Cl)c(C#N)cc2nc1NCC
91 | CCNc1nc2cc(OC)c(Cl)cc2nc1-c1cnn(Cc2ccccc2)c1
1090 | CCNc1nc2cc(Cl)c(NC(=O)CCO)cc2nc1NCC
125 | CCNc1nc2cc(Cl)c(C#CC(C)O)cc2nc1NCC (stereo not given)
393 | CCNc1nc2cc(Cl)c(C#CCNC(N)=O)cc2nc1NCC
10000 | COc1cc2nc(NCCCN3CCCC3)c(-c3ccncc3)nc2cc1OC

IC50 [nM] | SMILES
4400 | CCNc1nc2cc(OC)c(Cl)cc2nc1-c1cccc2[nH]ccc12
3160 | CCNc1nc2cc(Cl)c(C#CCCN3C(=O)c4ccccc4C3=O)cc2nc1NCC
2000 | CCNc1nc2cc(OC)c(Cl)cc2nc1-c1csc2ccccc12
54 | CCNc1nc2cc(Cl)c(C#CCCC#N)cc2nc1NCC
2690 | CCNc1nc2cc(Cl)c(C#CC(C)(C)O)cc2nc1NCC
10000 | CCNc1nc2cc(OC)c(Cl)cc2nc1-c1cccc2ccccc12
71 | CCNc1nc2cc(Cl)c(C#N)cc2nc1NCCN1CCN(C)CC1
1050 | CCNc1nc2cc(Cl)c(C#CCCN)cc2nc1NCC
10000 | CCNc1nc2cc(Cl)c(N3CC(CCO)C3)cc2nc1NCC
12 | C#Cc1cc2nc(NCC)c(NCC)nc2cc1Cl
50000 | CCNc1nc2cc(OC)c(OC)cc2nc1NCC
550 | CCNc1nc2cc(OC)c(Cl)cc2nc1-c1cccc(C(=O)NCc2ccccc2)c1
556 | CCNc1nc2cc(Cl)c(C#CC(N)=O)cc2nc1NCC
2000 | CCCC(O)C#Cc1cc2nc(NCC)c(NCC)nc2cc1Cl (stereo not given)
75 | CCNc1nc2cc(OC)c(Cl)cc2nc1-c1cn[nH]c1
122 | CCNc1nc2cc(Cl)c(C#CCC(C)O)cc2nc1NCC (stereo not given)
4600 | CCNc1nc2cc(OC)c(Cl)cc2nc1-c1cnc2ccccc2c1
665 | CCNc1nc2cc(C#CCCO)c(Cl)cc2nc1C#CCCO
2010 | CCNc1nc2cc(OC)c(OC)cc2nc1NCc1ccncc1
98 | CCNc1nc2cc(Cl)c([N+](=O)[O-])cc2nc1NCC
103 | CCNc1nc2cc(Cl)c(C#CCOCCO)cc2nc1NCC
